According to PubChem BioAssay AID256 (DTP/NCI, 2004):
Values joined by “and” are separate entries in the source; they are usually repeats but may differ in a detail not shown here. Equal entries are not always repeated. Toxic doses and inconclusive results are not listed.

Test system: CD2F1 mice, L1210 leukemia ip, survival T/C
Assay: NCI In Vivo Anticancer Drug Screen. Data for tumor model L1210 Leukemia (intraperitoneal) in CD2F1 (CDF1) mice
Conditions: higher = longer survival
In short: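 Implant tumor; dose compound or vehicle; measure endpoint in both groups; report treated divided by control.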

[1] = endpoint: mean survival time, dose: 12.5 mg/kg/injection, schedule: Q01DX001 (ip), vehicle: saline with Tween-80
[2] = endpoint: mean survival time, dose: 25.0 mg/kg/injection, schedule: Q01DX001 (ip), vehicle: saline with Tween-80
[3] = endpoint: mean survival time, dose: 200.0 mg/kg/injection, schedule: Q01DX001 (ip), vehicle: saline with Tween-80
[4] = endpoint: mean survival time, dose: 400.0 mg/kg/injection, schedule: Q01DX001 (ip), vehicle: saline with Tween-80
[5] = endpoint: mean survival time, dose: 100.0 mg/kg/injection, schedule: Q04DX003 (ip), vehicle: saline with Tween-80
[6] = endpoint: mean survival time, dose: 200.0 mg/kg/injection, schedule: Q04DX003 (ip), vehicle: saline with Tween-80
[7] = endpoint: mean survival time, dose: 400.0 mg/kg/injection, schedule: Q04DX003 (ip), vehicle: saline with Tween-80
[8] = endpoint: mean survival time, dose: 50.0 mg/kg/injection, schedule: Q01DX009 (ip), vehicle: saline with Tween-80
[9] = endpoint: mean survival time, dose: 100.0 mg/kg/injection, schedule: Q01DX009 (ip), vehicle: saline with Tween-80
[10] = endpoint: mean survival time, dose: 200.0 mg/kg/injection, schedule: Q01DX009 (ip), vehicle: saline with Tween-80

With CCN(CC)C(=O)C(Cc1ccc(OC)c(OC)c1)C(Cc1ccc(OC)c(OC)c1)C(=O)O (stereo not given) the T/C (endpoint: mean survival time, dose: 100.0 mg/kg/injection, schedule: Q01DX009 (ip), vehicle: other) was 98 % of control, the T/C (endpoint: mean survival time, dose: 200.0 mg/kg/injection, schedule: Q01DX009 (ip), vehicle: other) was 98 % of control and the T/C (endpoint: mean survival time, dose: 400.0 mg/kg/injection, schedule: Q01DX009 (ip), vehicle: other) was 95 % of control.

For CCOC(=O)c1ccc(N)cc1, the T/C [1] was 106 % of control, the T/C [2] was 100 % of control and the T/C (endpoint: mean survival time, dose: 50.0 mg/kg/injection, schedule: Q01DX001 (ip), vehicle: saline with Tween-80) was 100 % of control. For the same compound, the T/C (endpoint: mean survival time, dose: 75.0 mg/kg/injection, schedule: Q01DX001 (ip), vehicle: other) was 97 % of control, the T/C (endpoint: mean survival time, dose: 75.0 mg/kg/injection, schedule: Q04DX003 (ip), vehicle: saline with Tween-80) was 93 % of control and the T/C (endpoint: mean survival time, dose: 150.0 mg/kg/injection, schedule: Q01DX001 (ip), vehicle: other) was 103 % of control. The T/C (endpoint: mean survival time, dose: 150.0 mg/kg/injection, schedule: Q04DX003 (ip), vehicle: saline with Tween-80) was 100 % of control, the T/C [3] was 226 % of control and 96 % of control and the T/C [4] was 100 % of control and 103 % of control.

For O=C(CCCCCNC(=O)OCc1ccccc1)Oc1ccc([N+](=O)[O-])cc1, the T/C [5] was 101 % of control, the T/C [6] was 96 % of control and the T/C [7] was 94 % of control.

In the case of Cc1ccc(S(=O)(=O)O)cc1.Cc1ccc(S(=O)(=O)O)cc1.[NH-]C1CCCCC1[NH-].[Pt+2], the T/C (endpoint: mean survival time, dose: 2.0 mg/kg/injection, schedule: Q04DX003 (ip), vehicle: other) is reported as 177 % of control, the T/C (endpoint: mean survival time, dose: 4.0 mg/kg/injection, schedule: Q04DX003 (ip), vehicle: other) is reported as 255 % of control and the T/C (endpoint: mean survival time, dose: 8.0 mg/kg/injection, schedule: Q04DX003 (ip), vehicle: other) is reported as 183 % of control.

For CC(O)CCC(=O)c1ccoc1 (stereo not given), the T/C (endpoint: median survival time, dose: 0.62 mg/kg/injection, schedule: Q03HX015 (ip), vehicle: saline) was 109 % of control, the T/C (endpoint: median survival time, dose: 1.25 mg/kg/injection, schedule: Q03HX015 (ip), vehicle: saline) was 117 % of control and the T/C (endpoint: median survival time, dose: 2.5 mg/kg/injection, schedule: Q03HX015 (ip), vehicle: saline) was 106 % of control. For the same compound, the T/C (endpoint: median survival time, dose: 3.75 mg/kg/injection, schedule: Q03HX015 (ip), vehicle: saline + alcohol) was 112 % of control, the T/C (endpoint: median survival time, dose: 5.0 mg/kg/injection, schedule: Q03HX015 (ip), vehicle: saline) was 102 % of control and the T/C (endpoint: median survival time, dose: 7.5 mg/kg/injection, schedule: Q03HX015 (ip), vehicle: saline + alcohol) was 105 % of control. The T/C (endpoint: median survival time, dose: 10.0 mg/kg/injection, schedule: Q03HX015 (ip), vehicle: saline) was 109 % of control.

In the case of c1ccc2sc(SSN3CC4CCC(CC4)C3)nc2c1, the T/C (endpoint: mean survival time, dose: 12.5 mg/kg/injection, schedule: Q01DX009 (ip), vehicle: saline with Tween-80) is reported as 97 % of control and 108 % of control, the T/C (endpoint: mean survival time, dose: 25.0 mg/kg/injection, schedule: Q01DX009 (ip), vehicle: saline with Tween-80) is reported as 93 % of control and 101 % of control and the T/C [8] is reported as 102 % of control and 103 % of control. For the same compound, the T/C [9] was 101 % of control and 108 % of control, the T/C [10] was 95 % of control and 108 % of control and the T/C (endpoint: mean survival time, dose: 400.0 mg/kg/injection, schedule: Q01DX009 (ip), vehicle: saline with Tween-80) was 103 % of control.

For CCOC/C=C\C1=CCCCC1, the T/C [8] was 97 % of control, the T/C [9] was 114 % of control and the T/C [10] was 105 % of control.

COc1ccc([NH-])cc1.COc1ccc([NH-])cc1.[Br][Pt+2][Br] was tested, and the T/C (endpoint: mean survival time, dose: 3.12 mg/kg/injection, schedule: Q04DX003 (ip), vehicle: distilled water + Tween-80) was 111 % of control, the T/C (endpoint: mean survival time, dose: 6.25 mg/kg/injection, schedule: Q04DX003 (ip), vehicle: distilled water + Tween-80) was 108 % of control and the T/C (endpoint: mean survival time, dose: 12.5 mg/kg/injection, schedule: Q04DX003 (ip), vehicle: distilled water + Tween-80) was 114 % of control. For the same compound, the T/C (endpoint: mean survival time, dose: 25.0 mg/kg/injection, schedule: Q04DX003 (ip), vehicle: distilled water + Tween-80) was 111 % of control and the T/C (endpoint: mean survival time, dose: 50.0 mg/kg/injection, schedule: Q04DX003 (ip), vehicle: distilled water + Tween-80) was 98 % of control.

For O=C(NNC(=O)NC1OCC(O)C(O)C1O)Nc1ccccc1 (stereo not given), the T/C [5] was 101 % of control, the T/C [6] was 98 % of control and the T/C [7] was 98 % of control.

For Nc1nc(N)c(-c2ccc(Cl)c(Cl)c2)c(/C=C/C=C/c2cccnc2)n1, the T/C [8] was 110 % of control and the T/C [9] was 95 % of control.

In the case of N#CCCP(CCC#N)CCCCP(CCC#N)CCC#N, the T/C (endpoint: mean survival time, dose: 6.25 mg/kg/injection, schedule: Q01DX001 (ip), vehicle: saline with Tween-80) is reported as 100 % of control, the T/C [1] is reported as 96 % of control and the T/C [2] is reported as 98 % of control and 102 % of control.

With O=c1cc(Cc2ccccc2)[nH]c(=S)[nH]1 the T/C (endpoint: mean survival time, dose: 100.0 mg/kg/injection, schedule: Q01DX001 (ip), vehicle: Klucel (hydroxypropylcellulose) (HPC)) was 94 % of control, the T/C (endpoint: mean survival time, dose: 200.0 mg/kg/injection, schedule: Q01DX001 (ip), vehicle: Klucel (hydroxypropylcellulose) (HPC)) was 95 % of control and the T/C (endpoint: mean survival time, dose: 400.0 mg/kg/injection, schedule: Q01DX001 (ip), vehicle: Klucel (hydroxypropylcellulose) (HPC)) was 89 % of control.

COc1cc2c[n+](C)c3c4cc5c(cc4ccc3c2cc1OC)OCO5 (tested in a mixture with another compound) was tested, and the T/C (endpoint: mean survival time, dose: 3.13 mg/kg/injection, schedule: Q01DX009 (ip), vehicle: other) was 118 % of control and 112 % of control, the T/C (endpoint: mean survival time, dose: 5.0 mg/kg/injection, schedule: Q01DX009 (ip), vehicle: saline) was 119 % of control and the T/C (endpoint: mean survival time, dose: 6.25 mg/kg/injection, schedule: Q01DX009 (ip), vehicle: Klucel (hydroxypropylcellulose) (HPC)) was 112 % of control. For the same compound, the T/C (endpoint: mean survival time, dose: 6.25 mg/kg/injection, schedule: Q01DX009 (ip), vehicle: other) was 117 % of control and 112 % of control, the T/C (endpoint: mean survival time, dose: 12.5 mg/kg/injection, schedule: Q01DX009 (ip), vehicle: Klucel (hydroxypropylcellulose) (HPC)) was 124 % of control and the T/C (endpoint: mean survival time, dose: 12.5 mg/kg/injection, schedule: Q01DX009 (ip), vehicle: other) was 113 % of control and 118 % of control. For the same compound, the T/C (endpoint: mean survival time, dose: 25.0 mg/kg/injection, schedule: Q01DX009 (ip), vehicle: other) was 113 % of control and 116 % of control and the T/C (endpoint: mean survival time, dose: 50.0 mg/kg/injection, schedule: Q01DX009 (ip), vehicle: Klucel (hydroxypropylcellulose) (HPC)) was 112 % of control.

COc1cc2c(c(OC)c1OC)-c1cccc(=O)cc1C(NC(C)=O)CC2 (stereo not given) was tested, and the T/C (endpoint: median survival time, dose: 2.5 mg/kg/injection, schedule: Q01DX005 (ip), vehicle: saline) was 107 % of control, the T/C (endpoint: median survival time, dose: 5.0 mg/kg/injection, schedule: Q01DX005 (ip), vehicle: saline) was 111 % of control and the T/C (endpoint: median survival time, dose: 10.0 mg/kg/injection, schedule: Q01DX005 (ip), vehicle: saline) was 108 % of control and 111 % of control. The T/C (endpoint: median survival time, dose: 20.0 mg/kg/injection, schedule: Q01DX005 (ip), vehicle: saline) was 117 % of control and 111 % of control, the T/C (endpoint: median survival time, dose: 40.0 mg/kg/injection, schedule: Q01DX005 (ip), vehicle: saline) was 116 % of control and 111 % of control and the T/C (endpoint: median survival time, dose: 80.0 mg/kg/injection, schedule: Q01DX005 (ip), vehicle: saline) was 122 % of control. The T/C (endpoint: median survival time, dose: 160.0 mg/kg/injection, schedule: Q01DX005 (ip), vehicle: saline) was 122 % of control.

For CC(=O)OCCN(CCOC(C)=O)CCOC(C)=O, the T/C (endpoint: mean survival time, dose: 100.0 mg/kg/injection, schedule: Q04DX003 (ip), vehicle: Klucel (hydroxypropylcellulose) (HPC)) was 95 % of control.

In the case of Cc1cccnc1N.[Cl-].[Cl-].[Cl-].[Cl-].[Pt+2], the T/C (endpoint: mean survival time, dose: 21.88 mg/kg/injection, schedule: Q04DX003 (ip), vehicle: saline with Tween-80) is reported as 104 % of control and the T/C (endpoint: mean survival time, dose: 43.75 mg/kg/injection, schedule: Q04DX003 (ip), vehicle: saline with Tween-80) is reported as 110 % of control.

With O=c1[nH]nc(-c2cccc3ccccc23)o1 the T/C (endpoint: mean survival time, dose: 100.0 mg/kg/injection, schedule: Q01DX001 (ip), vehicle: saline with Tween-80) was 96 % of control, the T/C [3] was 99 % of control and the T/C [4] was 108 % of control.

With O=C(CC(=O)C(F)(F)F)c1cccs1.O=C(CC(=O)C(F)(F)F)c1cccs1.O=C(CC(=O)C(F)(F)F)c1cccs1.[Sm] the T/C (endpoint: median survival time, dose: 50.0 mg/kg/injection, schedule: Q04DX002 (ip), vehicle: saline with Tween-80) was 100 % of control, the T/C (endpoint: median survival time, dose: 100.0 mg/kg/injection, schedule: Q04DX002 (ip), vehicle: saline with Tween-80) was 88 % of control and the T/C (endpoint: median survival time, dose: 200.0 mg/kg/injection, schedule: Q04DX002 (ip), vehicle: saline with Tween-80) was 100 % of control.

O=C(O)C(=O)O.[Co].[NH-]CC[NH-].[NH-]CC[NH-] was tested, and the T/C (endpoint: mean survival time, dose: 100.0 mg/kg/injection, schedule: Q04DX002 (ip), vehicle: saline) was 98 % of control.

For COc1cc(C(C2=C(O)c3ccccc3C(=O)C2=O)C2=C(O)c3ccccc3C(=O)C2=O)cc(Br)c1O, the T/C (endpoint: mean survival time, dose: 100.0 mg/kg/injection, schedule: Q01DX009 (ip), vehicle: alcohol) was 101 % of control and the T/C (endpoint: mean survival time, dose: 200.0 mg/kg/injection, schedule: Q01DX009 (ip), vehicle: alcohol) was 93 % of control.

In the case of CC(=O)OCC1OC(OC2C(COC(C)=O)OC(OC(C)=O)C(OC(C)=O)C2OC(C)=O)C(OC(C)=O)C(OC(C)=O)C1OC(C)=O (stereo not given), the T/C (endpoint: mean survival time, dose: 100.0 mg/kg/injection, schedule: Q01DX001 (ip), vehicle: saline) is reported as 100 % of control, the T/C (endpoint: mean survival time, dose: 200.0 mg/kg/injection, schedule: Q01DX001 (ip), vehicle: saline) is reported as 91 % of control and the T/C (endpoint: mean survival time, dose: 400.0 mg/kg/injection, schedule: Q01DX001 (ip), vehicle: saline) is reported as 97 % of control.
